# Legend:
# [1] = Michaelis-Menten constant was determined; assay type: ADME
# [2] = Maximal rate constant was determined; assay type: ADME
# [3] = molecular target: 4-aminobutyrate aminotransferase, mitochondrial (Sus scrofa) (UniProt P80147); experiment: Compound was tested for inactivation of Gamma-amino-N-butyrate transaminase in pig brain at pH of 6.5
# [4] = molecular target: T1, 4-aminobutyrate aminotransferase, mitochondrial (Sus scrofa, UniProt P80147); experiment: Compound was tested for inhibitory constant of Gamma-amino-N-butyrate transaminase in pig brain at pH of 6.5
# [5] = molecular target: 4-aminobutyrate aminotransferase, mitochondrial (Sus scrofa) (UniProt P80147); experiment: Compound was tested for inactivation of Gamma-amino-N-butyrate transaminase in pig brain at pH of 8.5 and 25 degree C
# [6] = molecular target: T1, 4-aminobutyrate aminotransferase, mitochondrial; experiment: Compound was tested for inhibitory constant of Gamma-amino-N-butyrate transaminase in pig brain at pH of 8.5 and 25 degree C
# T1 sequence (P80147 whole entry): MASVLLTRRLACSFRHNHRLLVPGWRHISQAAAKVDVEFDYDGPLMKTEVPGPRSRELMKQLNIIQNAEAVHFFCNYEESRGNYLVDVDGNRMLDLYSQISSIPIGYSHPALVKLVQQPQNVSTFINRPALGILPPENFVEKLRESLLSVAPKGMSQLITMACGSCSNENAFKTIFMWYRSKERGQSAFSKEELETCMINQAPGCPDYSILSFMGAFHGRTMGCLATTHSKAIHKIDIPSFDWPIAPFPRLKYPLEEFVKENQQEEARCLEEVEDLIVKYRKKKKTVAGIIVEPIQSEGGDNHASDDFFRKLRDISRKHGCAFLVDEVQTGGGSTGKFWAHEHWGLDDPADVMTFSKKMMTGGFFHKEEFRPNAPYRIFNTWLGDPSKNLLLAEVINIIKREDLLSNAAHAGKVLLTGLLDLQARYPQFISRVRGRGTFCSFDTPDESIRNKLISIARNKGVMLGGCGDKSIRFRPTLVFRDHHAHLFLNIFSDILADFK
# Chain of 4-aminobutyrate aminotransferase, mitochondrial (Sus scrofa) (P80147 whole entry): as above
Structure (SMILES),Km [1],Vmax [2],K inact [3],Ki [4],K inact [5],Ki [6]
NC/C=C/C(=O)O [t-4-AMINOCROTONIC ACID (TACA)],1300 µM,0.35 µM/min/mg,,,,
NCCCC(=O)O [GAMMA-AMINOBUTYRIC ACID],1100 µM,0.14 µM/min/mg,,,,
NC(/C=C/C(=O)O)CF (stereo not given),,,0.061 min⁻¹,2000 µM,,
NC(CF)CCC(=O)O (stereo not given),,,0.31 min⁻¹,105000 µM,0.5 min⁻¹,395 µM

# From ChEMBL document CHEMBL1123222, “Inactivation of gamma-aminobutyric acid aminotransferase by (S,E)-4-amino-5-fluoropent-2-enoic acid and effect on the enzyme of (E)-3-(1-aminocyclopropyl)-2-propenoic acid” (J Med Chem, 1986)
